Laboratory results as given in publication PMC9086285, “Catalytic Features and Thermal Adaptation Mechanisms of a Deep Sea Bacterial Cutinase-Type Poly(Ethylene Terephthalate) Hydrolase” (Frontiers in Bioengineering and Biotechnology, 2022).

Legend:
ICCG = biological target: T1, ICCG (unidentified prokaryotic organism, UniProt G9BY57, Y127G/D238C/F243I/S283C); assay: inhibition of mp-PET hydrolysis, HPLC of products; type: biochemical; conditions: 1 mM MHET, mp-PET substrate, 40°C, pH 8.5, 10 mM CaCl2, 72 h; product inhibition
T1 construct: quadruple variant of LCC; only D238C/S283C given, the other two changes (F243I, Y127G) known from Tournier et al. 2020; expression construct not described; PDB 6THT given as the ICCG structure used for modelling
T1 sequence (G9BY57 36-293 Y127G/D238C/F243I/S283C): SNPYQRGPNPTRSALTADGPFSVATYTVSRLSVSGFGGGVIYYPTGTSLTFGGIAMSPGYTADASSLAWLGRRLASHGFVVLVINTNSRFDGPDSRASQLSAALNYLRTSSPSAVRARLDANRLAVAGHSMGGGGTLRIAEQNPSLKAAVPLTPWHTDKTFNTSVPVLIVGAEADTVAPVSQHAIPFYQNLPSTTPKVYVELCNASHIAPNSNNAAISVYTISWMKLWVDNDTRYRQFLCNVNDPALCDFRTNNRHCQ

IsPETase = biological target: T2, IsPETase (Pseudideonella sakaiensis, UniProt A0A0K8P6T7); assay: inhibition of mp-PET hydrolysis, HPLC of products; type: biochemical; conditions: 1 mM MHET, mp-PET substrate, 40°C, pH 8.5, 10 mM CaCl2, 72 h; product inhibition
T2 construct: gene ISF6_4831; purified enzyme; expression construct not described
T2 sequence (A0A0K8P6T7 28-290): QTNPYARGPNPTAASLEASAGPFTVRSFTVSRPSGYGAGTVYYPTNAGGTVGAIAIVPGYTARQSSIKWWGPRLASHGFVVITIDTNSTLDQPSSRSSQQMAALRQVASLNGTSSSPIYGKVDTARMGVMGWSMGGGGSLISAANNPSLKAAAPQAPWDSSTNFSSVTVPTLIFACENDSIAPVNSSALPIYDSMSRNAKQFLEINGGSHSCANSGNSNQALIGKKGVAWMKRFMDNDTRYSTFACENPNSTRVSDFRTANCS

O=C(O)c1ccc(C(=O)OCCO)cc1 [MHET]
inhibition at 1 mM (ICCG): in the presence of MHET, significant inhibitory effects were detected toward IsPETase and ICCG | inhibition at 1 mM (IsPETase): in the presence of MHET, significant inhibitory effects were detected toward IsPETase and ICCG
